US10292970B2, “Heteroaryl-substituted imidazo[1,2-A]pyridines and their use” (BAYER PHARMA AKTIENGESELLSCHAFT, priority 2014, dated 2019)
Where a name gives a salt, the structure may show the parent alone.

These molecules were tested on recombinant guanylate cyclase reporter cell line (assay: Effect on a recombinant guanylate cyclase reporter cell line). Details: in some cases mean values from individual determinations, read-out: MEC (minimum effective concentration).
Assay type: cell-based
Protocol: B-2. Effect on a Recombinant Guanylate Cyclase Reporter Cell Line
The cellular activity of the compounds according to the invention is determined using a recombinant guanylate cyclase reporter cell line, as described in F. Wunder et al., Anal. Biochem. 339, 104-112 (2005).
Representative MEC values (MEC=minimum effective concentration) for the compounds of the invention are shown in the table below (in some cases as mean values from individual determinations): […]

Point of comparison: `CC(=O)Nc1cccc(-c2c(C)nc3c(OCc4c(F)cccc4F)cc(C)cn23)c1` [Example 15, N-(3-{8-[(2,6-Difluorobenzyl)oxy]-2,6-dimethylimidazo[1,2-a]pyridin-3-yl}phenyl)acetamide], minimal effective concentration 0.02 µM. Against it:
- Cc1nc2c(OCc3c(F)cccc3F)cccn2c1-c1ncnc(NCC(C)(N)CCC(F)(F)F)n1 (single isomer, unassigned; enantiomer b) [Example 12, ent-N^1-(4-{8-[(2,6-Difluorobenzyl)oxy]-2-methylimidazo[1,2-a]pyridin-3-yl}-1,3,5-triazin-2-yl)-5,5,5-trifluoro-2-methylpentane-1,2-diamine (enantiomer B)] — 50-fold higher, 1 µM
- Cc1nc2c(OCc3c(F)cccc3F)cccn2c1-c1ccc(NCc2ccccc2)nc1 [Example 1, N-Benzyl-5-{8-[(2,6-difluorobenzyl)oxy]-2-methylimidazo[1,2-a]pyridin-3-yl}pyridine-2-amine] — 5-fold higher, 0.1 µM
- COCCNc1ccc(-c2c(C)nc3c(OCc4c(F)cccc4F)cccn23)cn1 [Example 2] — 5-fold higher, 0.1 µM
- CCN(C)c1ccc(-c2c(C)nc3c(OCc4c(F)cccc4F)cccn23)cn1 [Example 3] — 10-fold higher, 0.2 µM
- Cc1nc2c(OCc3c(F)cccc3F)cccn2c1-c1ccc(N2CC(C)OC(C)C2)nc1 (stereo not drawn) [Example 4] — 50-fold higher, 1 µM
- Cc1nc2c(OCc3c(F)cccc3F)cccn2c1-c1ccc(Nc2ccccc2)nc1 [Example 5] — 150-fold higher, 3 µM
- Cc1nc2c(OCc3c(F)cccc3F)cccn2c1-c1cnc(N2CCN(C)CC2)nc1 [Example 6, 8-[(2,6-Difluorobenzyl)oxy]-2-methyl-3-[2-(4-methylpiperazin-1-yl)pyrimidin-5-yl]imidazo[1,2-a]pyridine] — 500-fold higher, 10 µM
- Cc1cc(OCc2c(F)cccc2F)c2nc(C)c(-c3nc(N)nc(N)n3)n2c1 [Example 7, 6-{8-[(2,6-Difluorobenzyl)oxy]-2,6-dimethylimidazo[1,2-a]pyridin-3-yl}-1,3,5-triazine-2,4-diamine] — 15-fold higher, 0.3 µM
- Cc1cc(OCc2c(F)cccc2F)c2nc(C)c(-c3nc(N)nc(N(C)C)n3)n2c1 [Example 8, 6-{8-[(2,6-Difluorobenzyl)oxy]-2,6-dimethylimidazo[1,2-a]pyridin-3-yl}-N, N-dimethyl-1,3,5-triazine-2,4-diamine] — 15-fold higher, 0.3 µM
- CCCNc1nc(N)nc(-c2c(C)nc3c(OCc4c(F)cccc4F)cc(C)cn23)n1 [Example 9, 6-{8-[(2,6-Difluorobenzyl)oxy]-2,6-dimethylimidazo[1,2-a]pyridin-3-yl}-N-propyl-1,3,5-triazine-2,4-diamine] — 15-fold higher, 0.3 µM
- Cc1cc(OCc2c(F)cccc2F)c2nc(C)c(-c3cc(NCC(C)(C)N)ncc3F)n2c1 [Example 10, N′-(4-{8-[(2,6-Difluorobenzyl)oxy]-2,6-dimethylimidazo[1,2-a]pyridin-3-yl}-5-fluoropyridin-2-yl)-2-methylpropane-1,2-diamine] — 5-fold higher, 0.1 µM
- Cc1nc2c(OCc3c(F)cccc3F)cccn2c1-c1nc(Cl)nc(NCC(C)(C)N)n1 [Example 11, N′-(4-Chloro-6-{8-[(2,6-difluorobenzyl)oxy]-2-methylimidazo[1,2-a]pyridin-3-yl}-1,3,5-triazin-2-yl)-2-methylpropane-1,2-diamine] — 15-fold higher, 0.3 µM
- Cc1cc(OCc2c(F)cccc2F)c2nc(C)c(-c3ccnc(N4CCNCC4)c3)n2c1 [Example 13, 8-[(2,6-Difluorobenzyl)oxy]-2,6-dimethyl-3-[2-(piperazin-1-yl)pyridin-4-yl]imidazo[1,2-a]pyridine] — 10-fold higher, 0.2 µM
- Cc1cc(OCc2c(F)cccc2F)c2nc(C)c(-c3cccc(N4CCCC4)c3)n2c1 [Example 14, 8-[(2,6-Difluorobenzyl)oxy]-2,6-dimethyl-3-[3-(pyrrolidin-1-yl)phenyl]imidazo[1,2-a]pyridine] — 320-fold higher, 6.5 µM
- Cc1cc(OCc2c(F)ccc(F)c2F)c2nc(C)c(-c3nccc(N4CCCC4)n3)n2c1 [Example 16, 2,6-Dimethyl-3-[4-(pyrrolidin-1-yl)pyrimidin-2-yl]-8-[(2,3,6-trifluorobenzyl)oxy]imidazo[1,2-a]pyridine trifluoroacetate] — 150-fold higher, 3 µM
- CC(=O)Nc1cccc(-c2c(C)nc3c(OCC4CCCCC4)cccn23)c1 [Example 19, N-{3-[8-(Cyclohexylmethoxy)-2-methylimidazo[1,2-a]pyridin-3-yl]phenyl}acetamide] — 10-fold higher, 0.2 µM
- CC(=O)Nc1cccc(-c2c(C)nc3c(OCc4ncccc4F)cc(Cl)cn23)c1 [Example 20, N-(3-{6-Chloro-8-[(3-fluoropyridin-2-yl)methoxy]-2-methylimidazo[1,2-a]pyridin-3-yl}phenyl)acetamide] — 15-fold higher, 0.3 µM
